Patent publication US20120282266A1, “ANTI-NEOPLASTIC USES OF ARTEMIN ANTAGONISTS” (AUCKLAND UNISERVICES LIMITED, priority 2009, published 2012)

Tests used:
[1] = system: BT549 PTX Res cells; assay: Cell function assays (monolayer viability, soft agar colony formation, 3D matrigel growth), BT549-PTX Res; assay type: cell-based
Experimental: (§1) For soft agar colony formation assay, cells were cultured in 96-well plates first covered with a layer of agar (0.5%). Cells were grown in medium containing 10% FBS. 5×10^3 cells were seeded into 100 μl 0.35% agarose and onto the 0.5% agarose base layer. 100 μl serum-supplemented medium containing drug or antibody was added on the top and changed every 3 days. The plates were incubated at 37° C. in a humidified incubator. After 10 days, alarmarBlue® was added (1:10 volume reagent, Invitrogen) and incubated at 37° C. for 4 hours, followed by measurement of fluorescence with excitation wavelength at 530 nm and emission wavelength at 590 nm.
For the 3D Matrigel™ culture, monolayer grown cells were harvested by trypsinization, taken up in the complete medium, and separated into single-cell suspension by several passages through a Pasteur pipette. After this, 50 μl complete medium containing 5,000 cells was added to 150 μl of growth factor reduced Matrigel™ (Becton Dickinson, Bedford, Mass.) diluted 1:1 with complete media with 20% FBS. […] Organoid formation was counted in randomly chosen fields with light microscopy. […]
Cell viability, soft agar colony formation assay and 3D matrigel growth assays were performed as described above in Example 1. For the cell viability assay, 3000 cells were seeded into 100 ul media(2% FBS) and every 24 h viability was determined.

[2] = system: ARTN; assay: Western blot for ARTN protein expression in BT549 and MDA-MB-231 cell pairs; assay type: cell-based, human; details: BT549 wild type cells, with paclitaxel vs without paclitaxel
Experimental: Western blot analysis was performed as described previously (Liu and Lobie, 2007) using the following antibodies: goat anti-artemin polyclonal antibody (R&D systems, Minneapolis, Minn.) and mouse anti-β-Actin monoclonal antibody (Sigma, St Louis, Mo.).
Western blot analysis was performed as described above in Example 1.
Reagents, Western blot analysis, and cell function and viability assays were all done as described above in Example 2.

[3] = system: TAMS cells (tamoxifen sensitive MCF-7); assay: Cell number growth assay in estrogen free medium, TAMS cells; assay type: cell-based, human; details: 1 μM tamoxifen, 7 days
Experimental: (§2) For estrogen-free cell culture, MCF-7 cells were cultured in phenol red free RPMI-1640 supplemented with 10% dextran coated charcoal stripped fetal bovine serum (CS-FBS) for 3 days before estrogen or antiestrogen treatment. The tamoxifen resistant (TAMR) cell line was established as described by Shaw et al. (2006). Briefly, the parental MCF-7 cells were continuously exposed for 6 months to 1 μM tamoxifen in phenol red free RPMI 1640 medium containing 10% CS-FBS until the cells developed resistance to the growth inhibitory effect of tamoxifen. MCF-7 cells sensitive to tamoxifen, cultured in the same medium without tamoxifen, were designated as tamoxifen sensitive (TAMS) cells. Cells were seeded onto 6-well plates at a density of 5×10^4 cells per well, in triplicate, in 3 ml of complete medium containing 10% or 0.2% FBS. Cells were cultured under these conditions for up to 10 days with medium changed every other day until harvesting. To compare the cell proliferation rate, the total cell number in each well was quantified with a haemocytometer every 2 days. Cell viability was assessed by using trypan blue.

[4] = system: TAMR cells (tamoxifen resistant MCF-7); assay: Cell number growth assay in estrogen free medium, TAMR cells; assay type: cell-based, human; details: 1 μM tamoxifen, 7 days
Experimental: as §2

[5] = system: artemin; assay: Artemin expression by semi-quantitative RT-PCR and Western blot in TAMS/TAMR cells; assay type: cell-based, human; details: 1 μM tamoxifen, 72 hours
Experimental: Total RNA was isolated from cultured cells with Trizol reagent (Invitrogen) at 1 ml/10 cm2 according to the manufacturer's instructions. RNA was resuspended in diethyl pyrocarbonate (DEPC)-treated nuclease-free water. RNA samples were further treated with DNase I for 30 min at 37° C. The reaction was stopped by addition of 25 mM EDTA and incubation at 65° C. for 15 min. RNA samples were then purified by extraction in phenol/chloroform (pH 5.2, phenol:chloroform:isoamyl alcohol at 25:24:1) followed by an additional chloroform extraction and ethanol precipitation. Quantification and purity of the RNA was assessed by A260/A280 absorption, and RNA quality was assessed by agarose gel electrophoresis. RNA samples with ratios of A260/A280 greater than 1.6 were stored at −80° C. for further analysis.
One-step reverse transcription (RT)-PCR kit (Qiagen) was used to determine the presence of artemin transcript using a pair of primers: 5′-[…]-3 (forward; SEQ ID NO: 41) and 5′-[…]-3′ (reverse; SEQ ID NO: 42). For RT-PCR, the following procedure was employed. To start, 1 μg of total RNA was diluted to 0.1 μg/μl to minimize the variation of sample handling. This dilution was treated by DNase I for 15 min, followed by inactivation of DNase by adding EDTA to 5 mM and heating to 70° C. for 15 min. […]

[6] = system: TAMR cells (tamoxifen resistant MCF-7); assay: Soft agar colony formation (anchorage independent growth), TAMR cells; assay type: cell-based, human; details: 1 μM tamoxifen alone, 10 days
Experimental: as §1
To perform soft agar colony formation assays, 50 μl of 0.5% agarose in serum containing medium was plated onto each well of 96-well flat-bottom microplates, as a base agar layer. Next, 5×10^3 cells in a […] mixture of 0.35% agarose in serum containing medium were plated onto the base layer. Subsequently, 100 μl of the medium was added to prevent drying of the agarose gels. For antibody treatment, the antibodies at the indicated concentrations were added into the top agar layer and the culture medium to ensure the complete exposure of cells to antibodies. […] The plate was shaken briefly and then read at 595 nm (test wavelength) and 690 nm (reference wavelength) using the Synergy™ 2 Multi-Mode Microplate Reader (BioTek instruments, Inc., Vermont, USA).

Structure (SMILES) | difference in sensitivity to paclitaxel, resistant subline vs parental line ([1]; BT549-PTX Res vs parental BT549) [fold] | sensitivity to paclitaxel in monolayer proliferation, colony formation in soft agar and 3D matrigel growth ([1]; paclitaxel resistant cells compared to paclitaxel sensitive cells) | ARTN expression [2] | growth of TAMS cells [3] | growth of TAMR cells [4] | artemin expression (mRNA and protein) ([5]; TAMR cells) | artemin expression (mRNA and protein) ([5]; TAMS cells) | colony formation in soft agar [6]
CC(=O)O[C@H]1C(=O)[C@@]2(C)[C@H]([C@H](OC(=O)c3ccccc3)[C@]3(O)C[C@H](OC(=O)[C@H](O)[C@@H](NC(=O)c4ccccc4)c4ccccc4)C(C)=C1C3(C)C)[C@]1(OC(C)=O)CO[C@@H]1C[C@@H]2O [paclitaxel] | ~2 | less sensitivity to paclitaxel | increased ARTN expression | – | – | – | – | –
CC/C(=C(\c1ccccc1)c1ccc(OCCN(C)C)cc1)c1ccccc1 [tamoxifen] | – | – | – | retained the response to E2 and tamoxifen sensitivity | loss of response to E2 and of tamoxifen sensitivity | retained elevated artemin expression | markedly abrogated artemin expression | did not affect colony formation
